Here are results for 1 compound from patent publication US20180296523A1, “USE OF POLYMETHOXYLATED FLAVONES TO AMELIORATE CIRCADIAN RHYTHM DISORDERS” (THE BOARD OF REGENTS OF THE UNIVERSITY OF TEXAS SY, priority 2017, published 2018).

Molecules are shown by their SMILES. Entries after “also recorded” stand apart in the source; their conditions may differ.

Assay [1] concerns SCN explants from PER2::Luc WT reporter mice. Put plainly: PER2::Luc reporter rhythms in SCN explants. It counts as cell-based, mouse. The conditions noted are these: listed as NOB. The method, then:
The chemical screen for circadian clock modulators was conducted at the Chemical Genomics Core facility at the UTHSC-H. The in-house chemical library screened consists of compounds from NIH Clinical Collection, NCI collection and Microsource Spectrum Collection. The screening was conducted largely based on the protocol previously described (Chen et al., 2012). Briefly, 15,000 immortalized fibroblast cells from Clock^Δ19/+ heterozygous mice expressing the PER2::Luc bioluminescence reporter were plated into each well of 96-well plates, and incubated for 3-4 d to allow growth to confluency. Cells were then incubated with 5 μM forskolin for 1-2 h followed by the addition of chemical compounds to the plates with robotic arms (Beckman), and then subjected to continuous monitoring over several days in a temperature-controlled EnVision microplate reader (Perkin Elmer). Data analysis was carried out by using the MultiCycle software (Actimetrics) for measurement of period, phase, and amplitude. […] NOB and a structurally related analog Naringin (NAR) were re-ordered from commercial sources including Sigma and GenDEPOT and dose response validation was conducted using PER2::LucSV reporter fibroblast cells which express stronger bioluminescence signals and thus allow precise measurements of circadian clock effects of compounds (Chen et al., 2012). […]

Assay [2] has as its system db/db and db/db Clock^Δ19/Δ19 mice. Put plainly: db/db diabetic mice and db/db Clock^Δ19/Δ19 double-mutant mice. It counts as in vivo, mouse. As to the method: Weekly body weight was monitored in different treatment mice for 10 weeks. Body mass composition was measured at the end of experiments using a minispec mqNMR spectrometer (Bruker Optics, Texas) (Garcia et al., 2013). A control group of mice were fed with regular chow diet (Purina 5001) in parallel with the two treatment groups in HFD. For db/db and db/db Clock^Δ19/Δ19 mice, male mice at 6-8 weeks of age were group-housed (2-3/cage) and maintained on regular chow diets. Mice were subjected to oral gavage with either DMSO or NOB as described above.
Serum samples were obtained at ZT2 from treated mice as previously described (Jeong et al., 2015). Hepatic triglyceride and cholesterol were extracted as previously described (Liu et al., 2012). The triglyceride and cholesterol levels in liver and serum were assessed by Serum Triglyceride Determination Kit (Sigma) and Cholesterol Assay Kit (Cayman), respectively. The assay plates were read by a TECAN M200 instrument (Tecan) following the manufacturer's instructions.
Glucose tolerance test (GTT) and insulin tolerance test (ITT) were performed largely as described (He et al., 2015; Jeong et al., 2015). Briefly, after overnight and 5-hr fasting, GTT and ITT were conducted at ZT2 and ZT8 respectively. Glucose levels were measured from tail blood before and 15, 30, 60, or 120 min after injection of either 1 g/kg glucose or 0.75 U/kg insulin (Sigma) at ZT2 and ZT8 respectively by using the ONETOUCH UltraMini blood glucose monitoring system (LifeScan). Serum insulin levels were measured with the Rat/Mouse Insulin Elisa kit (Millipore) according to the manufacturer's instructions. The plasma samples were collected at ZT2 as described above for lipid assays.

Assay [3] concerns Bmal1 promoter (RORE) with RORα or RORγ. Put plainly: Bmal1 promoter-driven luciferase reporter in Hepa1-6 cells. It counts as cell-based, mouse. The source says:
Plasmids containing the retinoic acid-related orphan receptor response element (RORE) from mouse Bmal1 promoter, pcDNA3.1B-G4DBD-RORαLBD and pcDNA3.1BG4DBD-RORγLBD were constructed in our lab. Specifically, the 1960 bp sequences (−1830/+130) of the mouse Bmal1 promoter harboring either WT ([…] (SEQ ID NO:1) and […] (SEQ ID NO:2)) or mutant ([…] (SEQ ID NO:3)) RORE were PCR amplified from mouse genomic DNA and cloned into pGL3-promoter luciferase vector. For expression of RORα or RORγ-GAL4 protein, mouse RORα-LBD (aa 261-523) or RORγ-LBD (aa 250-516) were PCR amplified from mouse genomic DNA and cloned into a GAL4-DBD-containing vector, pcDNA3.1B.
For mammalian one-hybrid assays, HEK293T cells were cotransfected with pcDNA3.1B-G4DBD-RORα/γLBD, pGL4.31 and TK promoter Renilla luciferase construct (tK.pRL). To investigate the regulation of the Bmal1 reporter, Hepa1-6 cells were cotransfected with Bmal1-WT or mutant RORE reporter plasmids, RORα, RORγ or Rev-erbα expression construct along with tK.pRL. Mouse and human siRNA targeting RORα and RORγ were purchased from Santa Cruz. Transfection was performed by Lipfectamine 2000 reagent (Invitrogen) Twenty-four hours after transfection, the cells were treated with vehicle or NOB. Lysates were collected 24 h after treatment, and firefly and Renilla luciferase activities were measured by using a Dual-Luciferase Reporter System (Promega).
(Reporter assays use an easily measured gene product as a stand-in for the process of interest.)

Assay [4] has as its system PER2::Luc Clock^Δ19/Δ19 fibroblast cells. Kind of assay: Reporter rhythm in homozygous Clock^Δ19/Δ19 reporter cells. The settings on record: clock-disrupted homozygous Clock^Δ19/Δ19 cells. It counts as cell-based, mouse.
Assay [5] relates to core clock genes in PER2::LucSV cells. Put plainly: Real-time qPCR and Western blot of clock genes in PER2::LucSV cells. It counts as cell-based, mouse. The method, then:
For qPCR analysis, cells were split into 6-well plates at an initial density of 3×10^5 cells and incubated for 2-4 days before synchronization (5 μM Fsk or 100 nM Dex) followed by compound treatment. RNA samples were prepared by using PureXtract RNAsol for cDNA synthesis and real-time PCR (GenDEPOT) was performed with a MaxPro3000 Thermocycler (Agilent). qPCR primers used are listed in the table shown in Example 4. Whole cell lysates from cells similarly grown and treated in 60 mm dishes and tissue extracts were prepared as described (Yoo et al., 2013) and subjected to Western blot analysis (GenDEPOT). Antibodies for REV-ERBα (Pierce and Cell Signaling), PER1 (Lee et al., 2001) and other clock proteins (Yoo et al., 2013) were used.
(Real-time PCR tracks product formation cycle by cycle.)

Consider `COc1ccc(-c2cc(=O)c3c(OC)c(OC)c(OC)c(OC)c3o2)cc1OC` [nobiletin], for which the “reporter rhythms in SCN explants” value in assay [1] is “did not enhance reporter rhythms”. The “overall metabolic response to treatment” value in assay [2] (db/db Clock^Δ19/Δ19 double-mutant mice, in contrast to db/db) was “markedly attenuated response”. Besides, the circulating insulin levels entry in assay [2] (db/db Clock^Δ19/Δ19 mutant mice) was “strongly reduced circulating insulin levels”. Also, in assay [2] (db/db mice), the circulating insulin levels entry is given as “strongly reduced circulating insulin levels”, the fasting glucose levels entry is given as “lowered fasting glucose levels”, the “glucose tolerance (GTT)” value was “improved” and the “insulin sensitivity (ITT)” value is “improved”. In assay [2] (db/db mice), the “serum total cholesterol (TC)” value is “reduced” and the “serum total triglyceride (TG)” value is “reduced”. In addition, in assay [2] (db/db mice, RC, 10 weeks), the body weight gain entry is given as “strongly blunted body weight gain”. For the same compound, the “Bmal1 reporter activation with ectopic expression of REV-ERBα” value in assay [3] is given as “abolished reporter activation”. For the same compound, the “induction of Bmal1 reporter after knockdown of RORα/γ by siRNAs” value in assay [3] (Hepa1-6 cells) is recorded as “abrogated the nobiletin-mediated induction”. The “Bmal1 promoter-driven luciferase reporter activity” value in assay [3] (WT RORE, in the presence of RORα or RORγ) is listed as “dose-dependently increase”. The restoring reporter rhythm result in assay [4] is reported as “ineffective in restoring the rhythm; also recorded: not able to rescue reporter rhythms”. Moreover, in assay [5], the CRY1 protein abundance entry was “slight trend of greater protein abundance”; the CRY1 transcript level entry is reported as “markedly reduced transcript level”; the Pert transcript levels result is “moderately altered and reduced at CT20”; the “expression of other core clock genes” value is given as “altered”. Further, the PER2 proteins result in assay [5] (Western blot) is “accumulate to greater levels”.
